Counter-ions that a name gives are not always drawn.

From patent US20130252988A1, “COMPOSITIONS AND METHODS FOR TREATING MYELOFIBROSIS” (TARGEGEN, INC., priority 2010, published 2013) come the findings set out here.

The experiment concerns WBC count. As to the kind of experiment: Leukocytosis: WBC count. The class given is in vivo, human. As to conditions: for Subjects who achieved a normal WBC count: following 6 cycles; for Subjects with normal WBC counts: following 12 cycles.

On to `Cc1cnc(Nc2ccc(OCCN3CCCC3)cc2)nc1Nc1cccc(S(=O)(=O)NC(C)(C)C)c1` [TG101348, N-tert-butyl-3-[(5-methyl-2-{[4-(2-pyrrolidin-1-ylethoxy)phenyl]amino}pyrimidin-4-yl)amino]benzenesulfonamide dihydrochloride monohydrate], for which, where the note is “Example 1, leukocytosis at baseline, started at =680 mg”, the “Patients with a normal WBC count at last follow-up visit” value is given as 70%. Moreover, where the note is “Example 2, baseline WBC count >11×10^9/L”, the “Subjects with normal WBC counts at follow-up visit” value is on record as 73%. The “Anti-myeloproliferation activity: resolution of leukocytosis and thrombocytosis” value (Example 2 conclusions) was “virtually all treated subjects experiencing complete resolution of leukocytosis and thrombocytosis”. The “Subjects who achieved a normal WBC count” value (MTD cohort (13 of 18)) is 72% and the “Subjects who achieved a normal WBC count” value (across doses (16 of 28 with baseline leukocytosis)) worked out at 57%. For the same compound, the “Subjects with normal WBC counts” value is on record as 59% (MTD cohort (10 of 17)) and 56% (across doses (14 of 25)).
